Measured values: patent publication US12035716B2, “Treatment for seeds disinfection” (VILMORIN & CIE, priority 2013, dated 2024)
Like-named read-outs stand apart in the source and are kept apart here.

Assays:
cucumber seeds [1] = tested on: cucumber seeds
Experimental: The germination test was performed according to Annex to chapter 5, International Rules for Seed Testing, International Seed Testing Association, Zurich, Switzerland, 1996.

CGMMV [2] = conditions: 1.33% solution, VI disinfection; for Seed health lab results, ELISA average count: cut-off 0.130, untreated 0.841
Experimental: In this case, a commercial cucumber seed lot (2 kg) naturally infected by CGMMV was treated. The infected seeds were put into a reactor containing 20 liters of Na-Dichloroisocyanurate at 1.33%. The vacuum/de-vacuum cycles (i.e. vacuum infiltration) were applied gradually starting at 500 mbar and increased by 50 mbar each cycle up to the maximum of 985 mbar. Then we continued vacuum/de-vacuum cycles at maximum vacuum pressure of 985 mbar for a total of 30 cycles. […] Both fractions were separately collected. This process took 45 minutes. CGMMV was tested by ELISA assay according to method 7-026 of the international rules for seed testing annex to chapter 7: seed health testing methods; International Seed Testing Association, Zurich, Switzerland, 2010.

Acidovorax citrulli [3] = conditions: for BFB by PCR method: melon, 1.0% solution, 30 vacuum cycles, sinking fraction, 5000 seeds
Experimental: The process: 10 kg of seed are added to 45 liters of 1% or 2% Na-Dichloroisocyanurate. The seeds are mixed in the solution for 30 minutes and then washed in running water for 10 minutes and then dried to the original water content.
Three batches of 1 kilograms of this seed lot were put in a 10 liter glass vessel together with 3.0 liters of disinfecting solution comprising of Na-Dichloroisocyanurate at 1.0%. Thirty cycles of vacuum/de-vacuum (each cycle having a duration of 1 to 1.5 minutes) were applied with three different level: (i) level A: full vacuum up to 975-985, (ii) level B: medium level of 740-816 mbar, and (iii) level C: low level of 576-667 mbar. After 40 minutes (i.e. after achieving the 30 cycles of vacuum/de-vacuum) the floating fractions were discarded and the sinking fractions were collected, washed for 40 minutes and dried.
The standard protocol can be obtained from the National Seed Health System, a program authorized by USDA-APHIS and administered by the Iowa State University Seed Science Center to accredit both private and public entities to perform certain activities needed to support the issuance of Federal phytosanitary certificates for the international movement of seed. See page 69 of the May 2014 edition of the “Vegetable Crop Method-Reference Manual B” National Seed Health System available at http://www.seedhealth.org/files/pdfVegetable_Crops.pdf.

CGMMV [4] = conditions: watermelon seeds; vacuum infiltration 0.2% solution, 40 minutes, sinking fraction; 2000 seeds
cucumber seeds [5] = tested on: cucumber seeds; remark: listed apart in the source
Experimental: CGMMV was tested by ELISA assay according to method 7-026 of the international rules for seed testing annex to chapter 7: seed health testing methods; International Seed Testing Association, Zurich, Switzerland, 2010. The germination test was performed on petri dishes (TOP) at 24 C incubator and root protrusion was counted at 4 days after seeding (TOP at 4 d).

Acidovorax citrulli [6] = conditions: melon seeds
Excerpt: (§1) The vacuum cycles continue until floating seeds are no longer sinking. The floating seeds are then removed and discarded.
The standard protocol can be obtained from the National Seed Health System, a program authorized by USDA-APHIS and administered by the Iowa State University Seed Science Center to accredit both private and public entities to perform certain activities needed to support the issuance of Federal phytosanitary certificates for the international movement of seed.

CGMMV [7] = tested on: CGMMV
Experimental: In this case, cucumber seeds have been obtained from a commercial seed lot, naturally infected by CGMMV in the production field.
The seeds were disinfected by standard method and by vacuum infiltration method. In this case, vacuum is applied at maximal pressure of 975-985 mbar from the beginning. […] The vacuum cycles continue until floating seeds are no longer sinking. The floating seeds are then removed and discarded. This process takes 15-20 minutes.
In this case two chemicals were used.
We also tested the effect of different concentration of Na-Dichloroisocyanurate applied by vacuum infiltration on CGMMV and germination (table II) treatment E is untreated control; treatment F is vacuum infiltration of Na-Dichloroisocyanurate 0.75%; treatment G is vacuum infiltration of Na-Dichloroisocyanurate 1.5% and treatment H is vacuum infiltration of Na-Dich loroisocyanurate 2.0%.
CGMMV was tested by ELISA assay according to method 7-026 of the international rules for seed testing annex to chapter 7: seed health testing methods; International Seed Testing Association, Zurich, Switzerland, 2010.

melon seeds = conditions: vacuum infiltration 0.5%
cucumber seeds [8] = conditions: 1.33% solution, VI disinfection, untreated 97
Experimental: The germination test was performed on petri dishes (TOP) at 24 C incubator and root protrusion was counted at 4 days after seeding (TOP at 4 d).

Acidovorax citrulli [9] = conditions: watermelon seeds
Excerpt: as §1

O=c1nc([O-])n(Cl)c(=O)n1Cl.[Na+] [Na-Dichloroisocyanurate]
Germination % (cucumber seeds [1]; Na-Dichloroisocyanurate 0.4%, standard disinfection): 96% | Germination % (cucumber seeds [1]; Na-Dichloroisocyanurate 0.4%, vacuum infiltration): 100% | Germination % (cucumber seeds [1]; Na-Dichloroisocyanurate 0.75%, vacuum infiltration): 100% | Germination % (cucumber seeds [1]; Na-Dichloroisocyanurate 1.5%, vacuum infiltration): 100% | Germination % (cucumber seeds [1]; Na-Dichloroisocyanurate 2.0%, vacuum infiltration): 100% | Remarks (seed health) (CGMMV [2]; floating fraction (5%)): Contami- | Seed health lab results, Positive/total replicates (CGMMV [2]; floating fraction (5%)): 9/10 | Seed health lab results, ELISA average count (CGMMV [2]; floating fraction (5%)): 0.543 | Remarks (seed health) (CGMMV [2]; sinking fraction (95%)): Clean | Seed health lab results, Positive/total replicates (CGMMV [2]; sinking fraction (95%)): 0/30 | Seed health lab results, ELISA average count (CGMMV [2]; sinking fraction (95%)): 0.081 | BFB infection after standard disinfection (Acidovorax citrulli [3]; melon seeds, disinfected twice by standard protocol of example 5 (1% or 2%, 30 minutes)): still found to be BFB infected | BFB by PCR method (Acidovorax citrulli [3]; level A full vacuum up to 975-985): negative | BFB by PCR method (Acidovorax citrulli [3]; level B 740-816 mbar): negative | BFB by PCR method (Acidovorax citrulli [3]; level C 576-667 mbar): negative | CGMMV by ELISA assay (CGMMV [4]): negative | % Germination TOP at 4 d (cucumber seeds [5]; seed lot A, VI disinfection 1.5%, heavy fraction): 100% | % Germination TOP at 4 d (cucumber seeds [5]; seed lot A, standard disinfection 2.5%): 100% | % Germination TOP at 4 d (cucumber seeds [5]; seed lot B, VI disinfection 1.5%, heavy fraction): 100% | % Germination TOP at 4 d (cucumber seeds [5]; seed lot B, standard disinfection 2.5%): 100% | BFB infection after standard disinfection (Acidovorax citrulli [6]; disinfected twice by standard protocol, 1% and 2%, 10 min): still heavily infested | BFB by sweat-box assay (Acidovorax citrulli [6]; vacuum infiltration, 0.5% solution, floating fraction, 10,000 seeds): positive | BFB health test (PCR, seedling grow-out, sweat box) (Acidovorax citrulli [6]; vacuum infiltration, 0.5% solution, sinking fraction, 40,000 seeds tested): None of the seeds was found infected | ELISA assay result (rate of extinction at A405) (CGMMV [7]; Na-Dichloroisocyanurate 0.4%, standard disinfection, negative control 0.13): 0.45 | ELISA assay result (rate of extinction at A405) (CGMMV [7]; Na-Dichloroisocyanurate 0.4%, vacuum infiltration, negative control 0.13): 0.25 | ELISA assay result (rate of extinction at A405) (CGMMV [7]; Na-Dichloroisocyanurate 0.75%, vacuum infiltration, untreated control 0.72, negative control 0.13): 0.17 | ELISA assay result (rate of extinction at A405) (CGMMV [7]; Na-Dichloroisocyanurate 1.5%, vacuum infiltration, untreated control 0.72, negative control 0.13): 0.13 | ELISA assay result (rate of extinction at A405) (CGMMV [7]; Na-Dichloroisocyanurate 2.0%, vacuum infiltration, untreated control 0.72, negative control 0.13): 0.16 | Germination (melon seeds; floating fraction, counted at 4 days): 96% | Germination (melon seeds; floating fraction, counted at 7 days): 92% | Germination (melon seeds; heavy fraction, counted at 4 days): 99% | Germination (melon seeds; heavy fraction, counted at 7 days): 99% | % Germination TOP at 4 d (cucumber seeds [8]; floating fraction (5%)): 62% | % Germination TOP at 4 d (cucumber seeds [8]; sinking fraction (95%)): 94% | BFB infection after standard disinfection (Acidovorax citrulli [9]; standard disinfection process, 1.0% Na-Dichloroisocyanurate): still infected | BFB by sweat box assay (Acidovorax citrulli [9]; vacuum infiltration, 0.2% solution, sinking fraction, 4200 seeds tested): negative
